Data: PubChem BioAssay (NCI)
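Test compounds were applied to cells in 96-well plates for 48 hours at 5 doses. Abbreviation: GI50, concentration required for 50% inhibition of growth. TGI: total growth inhibition.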

Key:
Assay in all cases: growth of human tumour cells (NCI), 48 h
[1] = tested on: TK-10 renal
[2] = tested on: OVCAR-4 ovarian
[3] = tested on: M14 melanoma
[4] = tested on: SNB-75 CNS
[5] = tested on: HL-60(TB) leukemia
[6] = tested on: SNB-19 CNS
[7] = tested on: MCF7 breast
[8] = tested on: NCI-H226 lung
[9] = tested on: U251 CNS
[10] = tested on: OVCAR-5 ovarian
[11] = tested on: HOP-62 NSCLC
[12] = tested on: RXF 393 renal
[13] = tested on: A498 renal
[14] = tested on: SK-MEL-5 melanoma
[15] = tested on: CAKI-1 renal
[16] = tested on: MDA-MB-435
[17] = tested on: OVCAR-8 ovarian
[18] = tested on: SR leukemia
[19] = tested on: SW-620 colon
[20] = tested on: IGROV1 ovarian
[21] = tested on: 786-0 renal
[22] = tested on: HCC-2998 colon
[23] = tested on: SF-295 CNS
[24] = tested on: MDA-MB-231 breast
[25] = tested on: KM12 colon
[26] = tested on: NCI/ADR-RES ovarian
[27] = tested on: HCT-116 colon
[28] = tested on: HT29 colon
[29] = tested on: T-47D breast

For CCCOc1ccc2sc(NC(=O)OC)nc2c1, the GI50 [1] was > 24.5 µM, the TGI [1] was > 100 µM and the GI50 [2] was > 100 µM. For the same molecule, the TGI [2] was > 100 µM, the GI50 [3] was 1.26 µM and the TGI [3] was > 100 µM. For the same molecule, the GI50 [4] was 2.58 µM, the TGI [4] was > 100 µM and the GI50 [5] was 0.616 µM. For the same molecule, the TGI [5] was 5.24 µM, the GI50 [6] was 10.2 µM and the TGI [6] was > 100 µM. The GI50 [7] was 1.08 µM, the TGI [7] was > 100 µM and the GI50 [8] was > 100 µM. The TGI [8] was > 100 µM, the GI50 [9] was 2.42 µM and the TGI [9] was > 100 µM. The GI50 [10] was > 100 µM, the TGI [10] was > 100 µM and the GI50 [11] was 4.9 µM. For the same molecule, the TGI [11] was > 100 µM, the GI50 [12] was 2.71 µM and the TGI [12] was > 29.3 µM. For the same molecule, the GI50 [13] was 2.34 µM, the TGI [13] was > 27.1 µM and the GI50 [14] was 1.12 µM. The TGI [14] was > 100 µM, the GI50 [15] was 2.87 µM and the TGI [15] was > 100 µM. It also gave a GI50 [16] of 0.215 µM, a TGI [16] of 0.587 µM and a GI50 [17] of 5 µM. The TGI [17] was > 100 µM, the GI50 [18] was 0.36 µM and the TGI [18] was > 100 µM. For the same molecule, the GI50 [19] was 0.544 µM, the TGI [19] was > 100 µM and the TGI [20] was > 100 µM. For the same molecule, the GI50 [21] was > 28.2 µM, the TGI [21] was > 100 µM and the GI50 [22] was 24.5 µM. The TGI [22] was > 100 µM, the GI50 [23] was 2.69 µM and the TGI [23] was > 100 µM. For the same molecule, the GI50 [24] was > 100 µM, the TGI [24] was > 100 µM and the GI50 [25] was 0.627 µM. For the same molecule, the TGI [25] was > 100 µM, the GI50 [26] was 0.793 µM and the TGI [26] was > 47.5 µM. For the same molecule, the GI50 [27] was 1.06 µM, the TGI [27] was > 100 µM and the GI50 [28] was 0.465 µM. The TGI [28] was > 100 µM and the GI50 [29] was 2.94 µM.
